Results reported in paper PMC6720511, “Synthesis and biological evaluation of novel N-(piperazin-1-yl)alkyl-1H-dibenzo[a,c]carbazole derivatives of dehydroabietic acid as potential MEK inhibitors” (Journal of Enzyme Inhibition and Medicinal Chemistry, 2019).

Experiments:
[1] = tested on: Hep3B; experiment: MTT cytotoxic assay; type: cell-based, human; conditions: Homo sapiens, Hep3B, 48 h, mean value ± SD
Procedure, shortened: (§1)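 Cells seeded at 2 × 10^5 cells/mL in DMEM + 10% FBS attached for 24 h, then were exposed to compounds for 48 h at 37 °C. MTT (2.5 mg/mL solution) was added for 4 h; DMSO-dissolved formazan was read at 570 nm. Normal QSG-7701 hepatocytes were tested alongside; doxorubicin was positive control.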

[2] = tested on: SMMC-7721; experiment: MTT cytotoxic assay; type: cell-based, human; conditions: Homo sapiens, SMMC-7721, 48 h, mean value ± SD
Procedure, shortened: as §1

[3] = tested on: HepG2; experiment: MTT cytotoxic assay; type: cell-based, human; conditions: Homo sapiens, HepG2, 48 h, mean value ± SD
Procedure, shortened: as §1

[4] = tested on: normal hepatocyte cell line (QSG-7701); experiment: MTT cytotoxic assay on normal hepatocytes; type: cell-based, human; conditions: Homo sapiens, QSG7701, 48 h, mean value ± SD
Procedure, shortened: as §1

[5] = tested on: HepG2 cells; experiment: Western blot of oncosis and apoptosis markers; type: cell-based, human
Description: HepG2 cells were seeded at a density of 5 × 10^6 cells per well and attached for 8 h, and then treated with different concentrations of compound 10g for 48 h. After the treatment, the cells were harvested and washed twice with PBS. The harvested cells were lysed with radio-immunoprecipitation assay (RIPA) lysis buffer (Beyotime Biotech., Nantong, China) with 1% cocktail (Sigma-Aldrich, USA). Whole-cell protein lysates were prepared and centrifuged at 12,000 rpm for 10 min at 4 °C. The total proteins were determined using Bradford reagent (Bio-Rad Laboratories, Inc., USA). Exactly 40 µg of protein per lane was separated through sodium dodecyl sulfate-polyacrylamide gel electrophoresis and then transferred onto a polyvinylidene difluoride membrane (Millipore, Bedford, MA, USA). The membranes were incubated with each antibody and detected through immunoblot analysis. All of the antibodies were purchased from Cell signaling Technology, Inc. (Boston, MA, USA) and diluted in accordance with the manufacturer’s instruction. Proteins were visualized using a C-Digit® imaging system (LI-COR Biosciences, Lincoln, NE, USA).

[6] = tested on: HepG2 cells; experiment: Mitochondrial membrane potential assay (JC-1); type: cell-based, human
Description: The JC-1 mitochondrial membrane potential assay kit (Keygene Biotech., China) was employed to measure mitochondrial depolarization in HepG2 cells. Briefly, cells cultured in six-well plates after indicated treatments were incubated with an equal volume of JC-1 staining solution (5 µg/mL) at 37 °C for 20 min and rinsed twice with PBS. Mitochondrial membrane potentials were monitored by determining the relative amounts of dual emissions from mitochondrial JC-1 monomers or aggregates using flow cytometry (Becton-Dickinson FACSCalibur, New York, USA). Mitochondrial depolarization is indicated by an increase in the pencentage of cells with low ΔΨm (green fluorescence, lower right quadrant) compared with cells with high ΔΨm (red fluorescence, upper right quadrant).

[7] = Cell death inhibition assay; type: cell-based, human; conditions: human, HepG2 cells, 10g alone, 10 µM, read-out: relative cell viability of HepG2 cells
Description: Figure 6. Compound 10g induced oncosis and apoptosis of HepG2 cells. (a) PD150606 and Z-VAD-FMK partially reversed compound 10g-induced cell death. HepG2 cells were incubated with PD150606, Z-VAD-FMK or Necrostatin-1 at indicated concentration for 24 h alone or in combination with compound 10g at indicated concentration for 24 h. (b) Compound 10g induced the degradation of α-tubulin and β-actin, and activated oncosis marker calpain-1 autolysis from the 80 kDa event to 76 kDa event in western blot analysis. *, p < 0.01; **, p < 0.01; #, p < 0.01; &, p < 0.001. (c) Compound 10g induced the upregulation of apoptotic protein Bax, caspase-3, caspase-9 and plasmic cytochrome c levels, and the downregulation of antiapoptotic protein Bcl-2 level. *, p < 0.001; **, p < 0.01; #, p < 0.01; and p < 0.01.

[8] = tested on: HepG2 cells; experiment: ROS generation assay (DCFH-DA); type: cell-based, human; conditions: dose-dependent
Description: Reactive oxygen species (ROS) generation assay was performed by using the reactive oxygen species assay kit (Beyotime Biotech., China). Intracellular ROS generation was tested through dichlorodihydro fluorescein diacetate (DCFH-DA) assay. DCFH-DA is taken up by HepG2 cells, and then activated by esterase-mediated cleavage of acetate to form dichlorodihydro fluorescein (DCFH), which is trapped in the cells. DCFH is converted to fluorescein DCF in the presence of ROS. HepG2 cells were seeded in six-well plates and incubated with different concentrations of compound 10g for 24 h. After removing the compound solution, cells were treated with 10 µM of DCFH-DA at 37 °C for 20 min. Subsequently, the cells were washed with PBS for three times and then exposed to light. Immediately after light exposure, cell images were acquired through an inverted fluorescence microscope (Olympus 1X71 Inverted System Microscope, Olympus, Tokyo, Japan).

[9] = target: T1, MEK1 (Homo sapiens, UniProt Q02750); experiment: In vitro MEK1 inhibition assay (ADP-Glo kinase assay); type: biochemical; conditions: recombinant GST-MEK1, GST-ERK2, 10 µM ATP, mean value ± SD; read-out: MEK1 inhibitory activity IC50 value
T1 construct: purchased Carna Biosciences, Japan
T1 sequence (Q02750 whole entry): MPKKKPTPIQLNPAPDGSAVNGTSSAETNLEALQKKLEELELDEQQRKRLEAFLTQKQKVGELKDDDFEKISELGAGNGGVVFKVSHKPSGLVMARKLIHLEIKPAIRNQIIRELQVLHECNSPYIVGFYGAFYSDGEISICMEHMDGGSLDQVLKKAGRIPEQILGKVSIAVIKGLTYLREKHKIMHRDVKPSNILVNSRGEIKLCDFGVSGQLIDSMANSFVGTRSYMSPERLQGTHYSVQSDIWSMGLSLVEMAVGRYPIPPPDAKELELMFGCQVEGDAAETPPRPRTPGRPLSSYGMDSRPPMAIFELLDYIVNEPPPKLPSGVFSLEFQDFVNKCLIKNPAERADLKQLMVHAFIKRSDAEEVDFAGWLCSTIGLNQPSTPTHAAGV
Description: An in vitro kinase assay of MEK1 was performed using ADP-Glo kinase assay (Promega, Madison, WI, USA) according to the manufacturer’s protocol. […] Reactions were stopped by adding 5 µL of ADP-Glo reagent to each well. After incubating at 22 °C for 40 min, 10 µL of the kinase detection reagent was added and the plates were incubated for another 30 min at 22 °C in the dark. The reaction mixture was analysed by EnSpire (PerkinElmer, Waltham, MA, USA). U0126 was used as the positive control for MEK1 inhibition.

**Q.** With `CCOc1ccc2c(c1)c1c(n2CCN2CCNCC2)-c2cc(C(C)C)ccc2C2(C)CCCC(C)(C(=O)OC)C12` (centres unmarked) [Compound 10g, 2,3,4,4a,9,13c-Hexahydro-12-ethoxy-7-isopropyl-1,4a-dimethyl-9–(2-(piperazin-1-yl)ethyl)-1H-dibenzo[a,c]carbazole-1-carboxylic acid methyl ester] as the molecule, how does the IC50 [1] read?
**A.** 730 ± 80 nM

**Q.** And the IC50 [2]?
**A.** 1390 ± 130 nM

**Q.** What about the IC50 [3] of the same molecule?
**A.** 510 ± 90 nM

**Q.** And the IC50 [4]?
**A.** 12.5 ± 0.58 µM

**Q.** What about the “level of cytochrome c, caspase-3 and caspase-9 (in words)” value [5] of the same molecule?
**A.** increased dose-dependently

**Q.** And the “ratio of Bax/Bcl-2 (in words)” value [5]?
**A.** increased significantly

**Q.** And the “calpain-1 autolysis (in words)” value ([5]; 48 h)?
**A.** autolysed from 80 kDa event to 76 kDa event in a dose-dependent manner

**Q.** And the “level of α-tubulin and β-actin (in words)” value ([5]; dose-dependent)?
**A.** significant decrease

**Q.** And the “percentage of cells with low ΔΨm (lower right quadrant)” value ([6]; HepG2, 0.2 µM)?
**A.** 5.29%

**Q.** What about the “percentage of cells with low ΔΨm (lower right quadrant)” value ([6]; HepG2, 0.5 µM) of the same molecule?
**A.** 9.47%

**Q.** And the “percentage of cells with low ΔΨm (lower right quadrant)” value ([6]; HepG2, 1.0 µM)?
**A.** 15.00%

**Q.** And the viability at 24 h, 10 µM [7]?
**A.** 1.22%

**Q.** What about the “ROS generation (in words)” value [8] of the same molecule?
**A.** remarkably induce ROS generation

**Q.** And the IC50 [9]?
**A.** 110 ± 20 nM
